Holding throughout (format): cell-based, Human
Data set [1] relates to Aβ-GFP SH-SY5Y cells. Put plainly: High content analysis of Aβ-GFP fluorescence. The method, then: Human neuroblastoma SH-SY5Y-derived Aβ-GFP [23] and ∆K280 tauRD-DsRed cells were kept in DMEM/nutrient mixture F12 (DMEM/F12) containing 10% FBS, 5 μg/ml blasticidin, and 100 μg/ml hygromycin (InvivoGen, San Diego, CA, USA). Doxycycline (Sigma-Aldrich) was applied to induce the expression of Aβ-GFP (5 μg/ml doxycycline) or ∆K280 tauRD-DsRed (2 μg/ml doxycycline).
On day 1, Aβ-GFP or ∆K280 tauRD-DsRed SH-SY5Y cells were seeded into 96-well plates (2.5 × 10^4/well) and treated with retinoic acid (10 μM; Sigma-Aldrich) to prompt neuronal differentiation. […] Image Acquisition and Analysis Software (MetaXpress) (Molecular Devices, Sunnyvale, CA, USA) was used to analyse the images. CellROX Orange (5 μM; Molecular Probes, Eugene, OR, USA) (for Aβ-GFP cells) or dichloro-dihydro-fluorescein diacetate (DCFH-DA, 10 μM; Invitrogen) (for ∆K280 tauRD-DsRed cells) was added to the cells and incubated at 37°C for 30 min.

In data set [2] the test system is Aβ-GFP SH-SY5Y cells. Put plainly: Western blot in Aβ-GFP SH-SY5Y cells. The settings on record: LM-021 5 μM, immunoblot. The method, then: (§1) To monitor the cAMP-mediated signal transduction pathway, CRE-GFP 293 cells in 6-well plates (1 × 10^6/well) were pretreated with kinase inhibitor H-89 (LC Laboratories, Woburn, MA, USA), KN-62 (Cayman Chemical, Ann Arbor, MI, USA), U0126 (LC Laboratories), or wortmannin (LC Laboratories) (10 μM) for 4 h before forskolin or LM-021 (10 μM) addition for 5 h. GFP fluorescence/protein and total/phosphorylated PKA, CaMKII, ERK, PI3K, and CREB levels were examined. In addition, Aβ-GFP or ∆K280 tauRD-DsRed SH-SY5Y cells were treated with retinoic acid (10 μM) on day 1, followed by the addition of LM-021 (5 or 10 μM) and doxycycline (5 or 2 μg/ml) on day 2, as described. Kinase inhibitors (10 μM) were added on day 6. On day 8, the cells were collected for protein expression analysis of BDNF, BCL2 (BCL2 apoptosis regulator), and BAX (BCL2 associated X, apoptosis regulator), and total/phosphorylated PKA, CaMKII, ERK, PI3K, and CREB. Also, cells were stained with DAPI and assessed for neurite outgrowth as described above.
Total proteins from CRE-GFP 293 and Aβ-GFP, ∆K280 tauRD-DsRed SH-SY5Y cells were extracted using lysis buffer (50 mM Tris-HCl (pH 8.0), 150 mM NaCl, 1 mM EDTA (pH 8.0), 1 mM EGTA (pH 8.0), 0.1% SDS, 0.5% sodium deoxycholate, 1% Triton X-100) containing phosphatase and protease inhibitor cocktails (Sigma-Aldrich). Protein concentrations were measured using a protein assay kit (Bio-Rad, Hercules, CA, USA), and 20 μg of proteins was separated with 10% SDS-PAGE and blotted onto polyvinylidene difluoride (PVDF) membranes (Sigma-Aldrich). After blocking, the membrane blot was incubated with primary antibody against GFP (1 : 500; Santa Cruz Biotechnology, Santa Cruz, CA, USA), PKA (1 : 1000; R&D Systems, Minneapolis, MN, USA), p-PKA (T197) (1 : 1000; Cell Signaling, Danvers, MA, USA), ERK (1 : 500; Cell Signaling), p-ERK (T202/Y204) (1 : 500; Cell Signaling), CaMKII (1 : 1000; Santa Cruz Biotechnology), p-CaMKII (T286) (1 : 1000; Cell Signaling), CREB (1 : 1000; Santa Cruz Biotechnology), p-CREB (S133) (1 : 1000; Millipore, Billerica, MA, USA), BDNF (1 : 500; Santa Cruz Biotechnology), BCL2 (1 : 500; BioVision), BAX (1 : 500; BioVision), GAPDH (glyceraldehyde-3-phosphate dehydrogenase, as a loading control) (1 : 1000; MDBio, Taipei, Taiwan), or β-tubulin (1 : 1000, Sigma-Aldrich, as a loading control). The immune complexes were visualized using horseradish peroxidase-conjugated goat anti-mouse or goat anti-rabbit IgG antibody (1 : 5000, GeneTex, Irvine, CA, USA) and a chemiluminescent substrate (Millipore).

Data set [3] concerns ∆K280 tauRD-DsRed SH-SY5Y cells. The data set can be described thus: High content analysis of neurite outgrowth in ΔK280 tauRD-DsRed cells. The settings on record: 10 μM. The method, then: On day 1, Aβ-GFP or ∆K280 tauRD-DsRed SH-SY5Y cells were plated into 24-well plates (6 × 10^4/well) followed by addition of retinoic acid. On day 2, cells were treated with coumarin-chalcone derivatives (5 or 10 μM) and with doxycycline (5 or 2 μg/ml) to induce the expression of Aβ-GFP or ∆K280 tauRD-DsRed. On day 8, 4% paraformaldehyde, 0.1% Triton X-100, and 3% BSA were used to fix, permeabilize, and block cells, respectively. Subsequently, the cells were stained with TUBB3 (neuronal class III β-tubulin) primary antibody (1 : 1000; Covance, Princeton, NJ, USA) at 4°C overnight. Goat anti-rabbit Alexa Fluor 555 secondary antibody (1 : 1000; Thermo Fisher Scientific) was then added, followed by a 3 h incubation at room temperature. Following staining nuclei with 4′,-6-diamidino-2-phenylindole (DAPI) (0.1 μg/ml; Sigma-Aldrich), the neurons were imaged by using the HCA system and analysed by using the Neurite Outgrowth Application Module (MetaXpress; Molecular Devices).
as §1

Entries after “also recorded” stand apart in the source; their conditions may differ.

With `CN(C)c1ccc(/C=C/C(=O)c2c(O)c3ccccc3oc2=O)cc1` [LM-021, (E)-3-(3-(4-(dimethylamino)phenyl)acryloyl)-4-hydroxy-2H-chromen-2-one], the “Toxicity in SH-SY5Y cells” value in the data set with Aβ-GFP SH-SY5Y cells [1] (Aβ-GFP and ΔK280 tauRD-DsRed SH-SY5Y cells (Figures 3 and 4)) was “low toxicity”. Further, the EC50 in the data set on Aβ-GFP SH-SY5Y cells [1] (Homo sapiens, Aβ-GFP SH-SY5Y cells, tested 1.2–5 μM, read-out: EC50 in Aβ aggregation inhibition (GFP fluorescence)) was 5.1 µM. In addition, in the data set with Aβ-GFP SH-SY5Y cells [1] (tested 1.2–5 μM, day 8), the “Concentration significantly augmenting green fluorescence intensity (Aβ-GFP)” value lay in the range of 1.2 to 5 µM. In the data set on Aβ-GFP SH-SY5Y cells [2], the BAX protein levels result is reported as “reduced”; the “PKA and ERK protein levels” value was “rescued the reduction in PKA and ERK, although not significantly”; the “p-CREB, CREB, pro-BDNF, m-BDNF, and BCL2 protein levels” value was “significantly increased”; the “p-PKA, p-CaMKII, and p-ERK protein levels” value is recorded as “significantly upregulated”. In addition, the “Neurite length and branches” value in data set [3] is on record as “successfully ameliorated; also recorded: ameliorated the defects”.
